Measurements from paper PMC9888433, “Biochemical and hydrogen-deuterium exchange studies of the single nucleotide polymorphism Y649C in human platelet 12-lipoxygenase linked to a bleeding disorder” (Archives of biochemistry and biophysics, 2022).

Tests used:
[1] = target: T1, human platelet 12-lipoxygenase (h12-LOX) Y649C (Homo sapiens, UniProt P18054, Y649C); assay: steady-state Michaelis-Menten kinetics ([…] nm), kcat/KM at […] °C; LC-MS/MS products; format: biochemical
T1 construct: gene ALOX12; Nt-6His-tag recombinant enzyme expressed in Sf9
T1 sequence (P18054 1-663 Y649C): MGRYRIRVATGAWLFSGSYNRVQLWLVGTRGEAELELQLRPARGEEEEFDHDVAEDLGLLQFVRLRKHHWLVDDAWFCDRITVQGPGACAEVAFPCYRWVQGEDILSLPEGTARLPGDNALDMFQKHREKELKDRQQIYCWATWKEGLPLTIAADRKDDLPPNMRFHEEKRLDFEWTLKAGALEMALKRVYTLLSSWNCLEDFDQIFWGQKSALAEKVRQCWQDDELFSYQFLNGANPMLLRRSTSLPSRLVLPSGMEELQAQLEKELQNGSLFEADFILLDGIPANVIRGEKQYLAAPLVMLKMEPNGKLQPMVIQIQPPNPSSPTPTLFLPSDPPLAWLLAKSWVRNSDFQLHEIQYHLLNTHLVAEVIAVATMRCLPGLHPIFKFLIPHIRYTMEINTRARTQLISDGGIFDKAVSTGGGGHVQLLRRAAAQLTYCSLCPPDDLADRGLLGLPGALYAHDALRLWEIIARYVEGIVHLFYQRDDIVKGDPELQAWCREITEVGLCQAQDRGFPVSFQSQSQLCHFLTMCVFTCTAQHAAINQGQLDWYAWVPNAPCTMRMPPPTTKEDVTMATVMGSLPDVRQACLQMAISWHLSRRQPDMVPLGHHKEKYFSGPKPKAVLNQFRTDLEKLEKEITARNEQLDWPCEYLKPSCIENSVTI

[2] = target: T2, human platelet 12-lipoxygenase (h12-LOX) (Homo sapiens, UniProt P18054); assay: as above; format: biochemical
T2 construct: gene ALOX12; Nt-6His-tag recombinant enzyme expressed in Sf9
T2 sequence (P18054 1-663): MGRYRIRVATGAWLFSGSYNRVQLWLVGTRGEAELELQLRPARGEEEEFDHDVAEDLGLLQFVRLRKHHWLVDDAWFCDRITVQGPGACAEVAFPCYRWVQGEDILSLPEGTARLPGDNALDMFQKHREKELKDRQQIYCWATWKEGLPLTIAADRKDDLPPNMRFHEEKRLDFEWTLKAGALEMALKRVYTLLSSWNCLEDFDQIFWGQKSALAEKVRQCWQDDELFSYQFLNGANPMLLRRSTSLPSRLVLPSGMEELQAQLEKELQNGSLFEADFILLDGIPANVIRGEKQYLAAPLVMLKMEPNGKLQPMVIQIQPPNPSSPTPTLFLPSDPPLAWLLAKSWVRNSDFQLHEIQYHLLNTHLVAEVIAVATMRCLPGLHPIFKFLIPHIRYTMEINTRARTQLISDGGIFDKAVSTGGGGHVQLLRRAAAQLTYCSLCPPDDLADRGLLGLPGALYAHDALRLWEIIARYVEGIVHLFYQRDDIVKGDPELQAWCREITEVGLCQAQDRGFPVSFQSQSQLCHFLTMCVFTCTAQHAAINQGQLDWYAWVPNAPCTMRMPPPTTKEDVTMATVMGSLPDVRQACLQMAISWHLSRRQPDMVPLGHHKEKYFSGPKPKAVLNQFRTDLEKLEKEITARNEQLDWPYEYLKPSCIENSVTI

[3] = target: T2, human platelet 12-lipoxygenase (h12-LOX); assay: as above; format: biochemical; remark: listed apart in the source
[4] = target: T1, human platelet 12-lipoxygenase (h12-LOX) Y649C; assay: as above; format: biochemical; remark: listed apart in the source
[5] = target: T3, wild-type human platelet 12S-lipoxygenase (human), P18054; assay: SEC; affinity-purified protein on Superdex 75 10/300 GL, 25 mM HEPES (pH 8), 0.3 mL/min; elution compared with gel filtration standards; conditions: remark: other sources report otherwise
T3 chain: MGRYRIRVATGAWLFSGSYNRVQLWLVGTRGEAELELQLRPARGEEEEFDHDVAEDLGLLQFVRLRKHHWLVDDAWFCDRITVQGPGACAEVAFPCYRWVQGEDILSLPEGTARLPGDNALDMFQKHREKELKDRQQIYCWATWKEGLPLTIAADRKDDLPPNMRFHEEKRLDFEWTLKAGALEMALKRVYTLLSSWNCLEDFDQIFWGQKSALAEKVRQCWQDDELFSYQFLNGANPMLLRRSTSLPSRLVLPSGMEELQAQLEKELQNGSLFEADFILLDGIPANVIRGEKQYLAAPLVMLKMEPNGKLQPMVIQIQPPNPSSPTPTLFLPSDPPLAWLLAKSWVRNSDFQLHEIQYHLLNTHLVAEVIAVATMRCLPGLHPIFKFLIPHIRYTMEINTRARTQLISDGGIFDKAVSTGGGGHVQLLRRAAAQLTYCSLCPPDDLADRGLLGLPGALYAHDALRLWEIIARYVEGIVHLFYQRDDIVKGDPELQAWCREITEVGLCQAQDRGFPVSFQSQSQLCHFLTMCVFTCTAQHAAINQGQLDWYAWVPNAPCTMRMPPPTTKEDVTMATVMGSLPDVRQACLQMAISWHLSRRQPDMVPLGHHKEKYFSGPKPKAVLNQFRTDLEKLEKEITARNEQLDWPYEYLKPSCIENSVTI

[6] = target: the molecule itself; assay: as above

How did the “kcat/KM (μM^-1sec^-1) / Y649C” value [1] turn out when `CCCCC/C=C\C/C=C\C/C=C\C/C=C\CCCC(=O)O` [AA, arachidonic acid] was run?
The value was 6 µM⁻¹ s⁻¹.

What about the “kcat/KM (μM^-1sec^-1) / WT” value [2] of the same molecule?
Its value is 8.7 µM⁻¹ s⁻¹.

How did the “steady-state Michaelis-Menten kinetics (234 nm), kcat/KM at 22 °C; LC-MS/MS prod” value [3] turn out when `CC/C=C\C/C=C\C/C=C\C/C=C\C/C=C\C/C=C\CCC(=O)O` [DHA, docosahexaenoic acid] was run?
Its value is 7.7e+06 M⁻¹ s⁻¹.

What about the “steady-state Michaelis-Menten kinetics (234 nm), kcat/KM at 22 °C; LC-MS/MS prod” value [4] of the same molecule?
Its value is 960000 M⁻¹ s⁻¹.

B1: wild-type human platelet 12S-lipoxygenase, P18054 1-663 (enzyme)
chain: MGRYRIRVATGAWLFSGSYNRVQLWLVGTRGEAELELQLRPARGEEEEFDHDVAEDLGLLQFVRLRKHHWLVDDAWFCDRITVQGPGACAEVAFPCYRWVQGEDILSLPEGTARLPGDNALDMFQKHREKELKDRQQIYCWATWKEGLPLTIAADRKDDLPPNMRFHEEKRLDFEWTLKAGALEMALKRVYTLLSSWNCLEDFDQIFWGQKSALAEKVRQCWQDDELFSYQFLNGANPMLLRRSTSLPSRLVLPSGMEELQAQLEKELQNGSLFEADFILLDGIPANVIRGEKQYLAAPLVMLKMEPNGKLQPMVIQIQPPNPSSPTPTLFLPSDPPLAWLLAKSWVRNSDFQLHEIQYHLLNTHLVAEVIAVATMRCLPGLHPIFKFLIPHIRYTMEINTRARTQLISDGGIFDKAVSTGGGGHVQLLRRAAAQLTYCSLCPPDDLADRGLLGLPGALYAHDALRLWEIIARYVEGIVHLFYQRDDIVKGDPELQAWCREITEVGLCQAQDRGFPVSFQSQSQLCHFLTMCVFTCTAQHAAINQGQLDWYAWVPNAPCTMRMPPPTTKEDVTMATVMGSLPDVRQACLQMAISWHLSRRQPDMVPLGHHKEKYFSGPKPKAVLNQFRTDLEKLEKEITARNEQLDWPYEYLKPSCIENSVTI
For B1, which stoichiometry N [5] is on record?
The stoichiometry N was 2.

B2: Y649C h12-LOX (enzyme, human, UniProt P18054 1-663, looked up)
chain: MGRYRIRVATGAWLFSGSYNRVQLWLVGTRGEAELELQLRPARGEEEEFDHDVAEDLGLLQFVRLRKHHWLVDDAWFCDRITVQGPGACAEVAFPCYRWVQGEDILSLPEGTARLPGDNALDMFQKHREKELKDRQQIYCWATWKEGLPLTIAADRKDDLPPNMRFHEEKRLDFEWTLKAGALEMALKRVYTLLSSWNCLEDFDQIFWGQKSALAEKVRQCWQDDELFSYQFLNGANPMLLRRSTSLPSRLVLPSGMEELQAQLEKELQNGSLFEADFILLDGIPANVIRGEKQYLAAPLVMLKMEPNGKLQPMVIQIQPPNPSSPTPTLFLPSDPPLAWLLAKSWVRNSDFQLHEIQYHLLNTHLVAEVIAVATMRCLPGLHPIFKFLIPHIRYTMEINTRARTQLISDGGIFDKAVSTGGGGHVQLLRRAAAQLTYCSLCPPDDLADRGLLGLPGALYAHDALRLWEIIARYVEGIVHLFYQRDDIVKGDPELQAWCREITEVGLCQAQDRGFPVSFQSQSQLCHFLTMCVFTCTAQHAAINQGQLDWYAWVPNAPCTMRMPPPTTKEDVTMATVMGSLPDVRQACLQMAISWHLSRRQPDMVPLGHHKEKYFSGPKPKAVLNQFRTDLEKLEKEITARNEQLDWPCEYLKPSCIENSVTI
notes: human platelet 12-lipoxygenase (h12-LOX), UniProt P18054, with the naturally occurring SNP Y649C made by site-directed mutagenesis; numbering as in UniProt P18054; Variant found in a family with a bleeding diathesis; metal content 20% by ICP-MS; also called Y649C SNP variant of h12-LOX
Which “stoichiometry N” value [6] does the source give for B2 here?
Its value is 2.
